The target in series [1] is T1, μ opioid receptor (wild-type) (Mus musculus, UniProt P42866).
T1 construct: Brain membranes were prepared from both wild-type mice; from tissue; host or cells: mouse brain membranes (wild-type littermates)
The series can be described thus: [3H]DAMGO saturation binding (Scatchard analysis), brain membranes of wild-type mice. Here is the method:
(§1) Approximately 200–350 μg of membranes were used in each assay.

The target of series [2] is T2, μ opioid receptor S196A mutant (Mus musculus, UniProt P42866, S196A).
T2 construct: brain membranes from homozygous Cre/S196A (HOMO) mutant mice; from tissue; host or cells: brain membranes of homozygous Cre/S196A knock-in mice
T2 sequence (P42866 whole entry S196A): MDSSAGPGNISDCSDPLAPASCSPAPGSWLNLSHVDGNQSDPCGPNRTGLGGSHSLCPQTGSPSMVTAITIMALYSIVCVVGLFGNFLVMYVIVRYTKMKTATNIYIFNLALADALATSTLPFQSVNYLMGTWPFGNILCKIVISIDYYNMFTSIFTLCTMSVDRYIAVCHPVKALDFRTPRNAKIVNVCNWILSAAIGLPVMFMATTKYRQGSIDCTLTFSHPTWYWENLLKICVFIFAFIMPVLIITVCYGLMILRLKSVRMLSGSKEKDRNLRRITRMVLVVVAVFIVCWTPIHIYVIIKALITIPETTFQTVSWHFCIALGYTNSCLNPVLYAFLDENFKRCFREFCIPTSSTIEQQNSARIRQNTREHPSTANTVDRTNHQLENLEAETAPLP
The series can be described thus: [3H]DAMGO saturation binding (Scatchard analysis), brain membranes of homozygous Cre/S196A mice. To be noted: listed as [^3H]DAMGO. The procedure:
as §1

For series [3], the system named is wild-type mice. The series can be described thus: Tail withdrawal antinociception test, wild-type mice. The class given is in vivo, mouse. To be noted: for ED50: Mus musculus, 0.5 h, read-out: ED50 tail withdrawal. Here is the method:
(§2) For tail withdrawal testing, mice were loosely wrapped in an adsorbent towel, and their tails were immersed about 2 cm into water heated to 53° C. or placed under radiant heat. The latency to tail withdrawal was recorded. A cut-off time of 24 seconds for warm water or 12 seconds for radiant heat was used to minimize tail damage. […] Percent maximum possible effects (% MPE) were calculated by the following formula: (measured latency−baseline latency)*100/(cut-off time−baseline latency). Each dose for each genotype involved 8–12 mice. ED50 values were derived from regression analysis on the linear portion of each dose-response curve or calculated by non-linear regression. A two way analysis of variance (ANOVA) (genotype and dose) was used to determine genetic differences among genotypes in the same dose groups.

The subject of series [4] is Cre/S196A mice. Nature of the series: Tail withdrawal antinociception test, Cre/S196A mutant mice. As to conditions: for ED50: Mus musculus, radiant heat. Here is the method:
as §2

Series [5] relates to wild-type mice. The series can be described thus: Acetic acid-induced writhing inhibition test, wild-type mice. The format is in vivo, mouse. To be noted: for ED50: Mus musculus, ip, 0.6% acetic acid i.p. The procedure:
(§3) Writhing tests were conducted as follows. […] Writhing was counted for 20 minutes following the i.p. injection. At the same time, mice from each genotype were injected with saline s.c. plus acetic acid i.p., and the mean count of writhing of the saline group was calculated. The % MPE for writhing test was calculated by the following formula: (mean count of saline group−count of drug group)*100/(mean count of saline group).

Series [6] has as its system Cre/S196A mice. Nature of the series: Acetic acid-induced writhing inhibition test, Cre/S196A mutant mice. To be noted: for ED50: Mus musculus, ip, 0.6% acetic acid i.p. The format is in vivo, mouse. Here is the method: as §3
For orientation: In writhing tests, fewer writhes than in controls are read as antinociception.

Series [7] concerns μ opioid receptor knockout mice. The series can be described thus: Nalorphine antinociception in μ opioid receptor knockout mice. The format is in vivo, mouse. As to conditions: μ opioid receptor knockout mice (data not shown).
[8] abbreviates: read-out: ED50 tail withdrawal, homozygous Cre/S196A mice, 30 minutes after morphine and nalorphine, 12 minutes after naloxone injection.

“And” between values parts separate entries of the source, which are not always exact repeats. Equal values may be shown once.

T1 sequence (P42866 whole entry): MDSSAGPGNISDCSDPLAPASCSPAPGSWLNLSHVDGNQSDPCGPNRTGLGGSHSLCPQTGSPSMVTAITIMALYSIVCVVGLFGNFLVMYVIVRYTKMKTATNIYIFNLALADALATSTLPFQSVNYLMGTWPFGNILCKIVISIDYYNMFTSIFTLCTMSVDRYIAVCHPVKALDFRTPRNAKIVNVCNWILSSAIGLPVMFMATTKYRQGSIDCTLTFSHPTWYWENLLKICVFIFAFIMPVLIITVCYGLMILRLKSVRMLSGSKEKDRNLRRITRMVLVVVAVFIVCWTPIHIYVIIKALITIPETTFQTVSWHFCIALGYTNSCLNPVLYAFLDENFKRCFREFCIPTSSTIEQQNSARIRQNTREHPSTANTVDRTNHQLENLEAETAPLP

As for `C[C@@H](NC(=O)[C@@H](N)Cc1ccc(O)cc1)C(=O)NCC(=O)N(C)[C@@H](Cc1ccccc1)C(=O)NCCO` [DAMGO, [D-Ala^1.N-McPhe^4.Gly^5-ol]enkephalin], the Bmax was 113±4.3 fmole/mg-protein in series [1]; 17.5±2.3 fmol/mg protein and 17.5 fmol/mg protein in series [2].

For `CN1CC[C@]23c4c5ccc(O)c4O[C@H]2[C@@H](O)C=C[C@H]3[C@H]1C5` [morphine], the ED50 turned out to be 4.4 mg/kg in the series on wild-type mice [3]; 3.47 mg/kg in the series on Cre/S196A mice [4] (read-out: ED50 tail withdrawal, heterozygous Cre/S196A mice); 3.2 mg/kg in the series on Cre/S196A mice [4] (setting [8]); 0.48 mg/kg in the series on wild-type mice [5]; 0.68 mg/kg in the series with Cre/S196A mice [6] (heterozygous Cre/S196A mice); 0.5 mg/kg in the series with Cre/S196A mice [6] (homozygous Cre/S196A mice).

Consider `C=CCN1CC[C@]23c4c5ccc(O)c4O[C@H]2[C@@H](O)C=C[C@H]3[C@H]1C5` [nalorphine], for which the ED50 in the series on wild-type mice [3] stood at 0.61 mg/kg; with Cre/S196A mice [4] (setting [8]) it was 0.89 mg/kg; in the series with wild-type mice [5] it was 0.37 mg/kg; with Cre/S196A mice [6] (homozygous Cre/S196A mice), 0.27 mg/kg. Further, in the series with wild-type mice [3] (wild-type mice), the “maximal response, of the maximal morphine response, tail withdrawal” value was determined as 24±5%. The “antinociceptive response, of the morphine maximal response, tail withdrawal” value in the series with Cre/S196A mice [4] (homozygous Cre/S196A mice, maximal dose tested, 10 mg/kg) turned out to be 68±5%. The “maximal response, of the maximal morphine response, writhing” value in the series with wild-type mice [5] was 44±3%. Further, in the series with Cre/S196A mice [6] (homozygous Cre/S196A mice, dose of 1 mg/kg), the “maximal antinociceptive response compared with morphine, inhibition of writhing” value is on record as “same maximal antinociceptive response as morphine”. For the same compound, in series [7], the antinociceptive effect result is “absence of nalorphine effect”.

As for `C=CCN1CC[C@]23c4c5ccc(O)c4O[C@H]2C(=O)CC[C@@]3(O)[C@H]1C5` [naloxone], the “antinociceptive response, tail withdrawal” value with wild-type mice [3] (wild-type mice, doses of 0.1 to 10 mg/kg) is “did not produce significant antinociceptive responses”. Moreover, the results for the ED50 in the series with Cre/S196A mice [4] (setting [8]) and in the series with Cre/S196A mice [6] (homozygous Cre/S196A mice) were 1.32 mg/kg and 0.22 mg/kg, respectively. For the same compound, the toxic effects result in the series on Cre/S196A mice [4] (both the mutant and the wild-type mice at higher dosages) is recorded as “increasing toxic effects”. Further, the “antinociceptive response, writhing” value in the series on wild-type mice [5] (doses of 0.1 to 10 mg/kg) was “did not produce significant antinociceptive responses”. Also, the “maximal response, of that observed with morphine, writhing inhibition” value with Cre/S196A mice [6] (Cre/S196A mice) was determined as 45±3.

These data come from patent US7214534B2, “Isolated nucleic acid molecules encoding mutant μ opioid receptors” (Regents of the University of Minnesota, priority 2002, dated 2007).
